Patent US20110152271A1, “Compositions and methods for ophthalmic delivery of nasal decongestants” (priority 2009, published 2011)
Read-outs that look alike come from different tables or passages of the source.

Assays:
[1] = 0.025% brimonidine topically to one eye; 10 minutes; 11 individuals
Protocol: 11 individuals were asked to assess the patency of each nostril by alternately closing one. They were then given 0.025% brimonidine topically to one randomly selected eye. After 10 minutes each nostril was alternately closed to assess the patency of the contralateral nostril and compare to its patency before applying brimonidine to the eye. […] Nasal patency refers to a basic evaluation of the degree to which a nostril is open (i.e. unblocked).

[2] = 0.025% brimonidine in one eye
Protocol: Eight (8) human subjects were administered 0.025% brimonidine. The subjects were administered with the drug in one eye and then asked to assess themselves in the mirror to see if they perceived a difference in conjunctival hyperemia between eyes. The drug was administered around 9:15 am. The assessments were made 5 minutes after the administration and 4 hours after the administration. After the four hours assessment, the drug was re-administered.

[3] = Protocol: 1 drop of 0.025% brimonidine was applied to the right eye of each patient. […] Then, the breathing function was measured in each nostril separately 10 minutes later. Then, 1 dose of 0.0045% brimonidine nasal spray was applied into the left nostril and the ease of breathing was again measured in each nostril separately 10 minutes later.

SMILES: Brc1c(NC2=NCCN2)ccc2nccnc12 [brimonidine]
- increase in patency in the contralateral nostril [1]: not in the contralateral
- patients with noticeable increase in patency in the ipsilateral nostril [1]: 9 of the 11
- subjects reporting reduced hyperemia and increased whiteness in the treated eye ([2]; 5 min assessment): eight of eight
- subjects reporting reduced hyperemia and increased whiteness in the treated eye ([2]; four hour assessment): eight of eight
- subjects reporting reduced nasal congestion in the nostril on the same side as the treated eye ([2]; four hour assessment): six of eight
- whiteness of the treated right eye ([3]; 1 drop of 0.025% brimonidine to the right eye): In all patients, the right eye has become whiter
- patients reporting reduced nasal congestion in the right nostril ([3]; 1 drop of 0.025% brimonidine to the right eye, 10 minutes later, three subjects with records): all three patients reported reducing nasal congestion in the right nostril
- patients reporting reduced nasal congestion in both nostrils ([3]; after eye drop, 1 dose of 0.0045% brimonidine nasal spray into the left nostril, 10 minutes later, three subjects with records): all three patients reported reduced nasal congestion in the both nostrils
